In patent publication US8604217B2, “Compound, a process for its preparation, a pharmaceutical composition, use of a compound, a method for modulating or regulating serine/threonine kinases and a serine/threonine kinases modulating agent” (Selvita S.A., priority 2009, dated 2013):

Columns and labels:
Assay in all cases: KinaseProfiler kinase panel
Format in all cases: biochemical
PKCγ(h) = PKCγ(h) (Homo sapiens (Human), UniProt P05129)
PKCβII(h) = PKCβII(h) (Homo sapiens (Human), UniProt P05771)
Chain of PKCβII(h) (P05771 other isoform, or with tags, fused parts or gaps): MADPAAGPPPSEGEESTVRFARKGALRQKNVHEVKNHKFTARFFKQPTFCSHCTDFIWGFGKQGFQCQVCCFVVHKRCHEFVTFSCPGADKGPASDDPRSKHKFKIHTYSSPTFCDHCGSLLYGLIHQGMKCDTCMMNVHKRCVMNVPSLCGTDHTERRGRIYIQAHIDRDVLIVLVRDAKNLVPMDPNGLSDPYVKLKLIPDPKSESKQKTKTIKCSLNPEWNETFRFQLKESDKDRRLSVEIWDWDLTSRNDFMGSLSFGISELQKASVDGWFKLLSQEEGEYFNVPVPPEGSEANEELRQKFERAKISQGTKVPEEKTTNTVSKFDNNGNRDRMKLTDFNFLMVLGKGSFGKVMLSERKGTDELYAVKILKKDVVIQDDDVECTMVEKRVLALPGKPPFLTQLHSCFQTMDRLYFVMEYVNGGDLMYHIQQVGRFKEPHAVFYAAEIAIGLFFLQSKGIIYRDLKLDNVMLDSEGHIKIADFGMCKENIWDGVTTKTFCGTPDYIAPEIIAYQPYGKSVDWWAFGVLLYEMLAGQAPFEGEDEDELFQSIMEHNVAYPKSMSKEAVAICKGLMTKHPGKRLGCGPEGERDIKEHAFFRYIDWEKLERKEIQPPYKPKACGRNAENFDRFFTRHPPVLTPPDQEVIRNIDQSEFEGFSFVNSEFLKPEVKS

Abl (Q252H) (h) = Abl (Q252H) (h) (Homo sapiens (Human), UniProt P00519, Q252H)
cKit(D816V)(h) = cKit(D816V)(h) (Homo sapiens (Human), UniProt P10721, D816V)
Txk(h) = Txk(h) (Homo sapiens (Human), UniProt P42681)
IRAK1(h) = IRAK1(h) (Homo sapiens (Human), UniProt P51617)
PKG1β(h) = PKG1β(h) (Homo sapiens (Human), UniProt Q13976)
Chain of PKG1β(h) (Q13976 other isoform, or with tags, fused parts or gaps): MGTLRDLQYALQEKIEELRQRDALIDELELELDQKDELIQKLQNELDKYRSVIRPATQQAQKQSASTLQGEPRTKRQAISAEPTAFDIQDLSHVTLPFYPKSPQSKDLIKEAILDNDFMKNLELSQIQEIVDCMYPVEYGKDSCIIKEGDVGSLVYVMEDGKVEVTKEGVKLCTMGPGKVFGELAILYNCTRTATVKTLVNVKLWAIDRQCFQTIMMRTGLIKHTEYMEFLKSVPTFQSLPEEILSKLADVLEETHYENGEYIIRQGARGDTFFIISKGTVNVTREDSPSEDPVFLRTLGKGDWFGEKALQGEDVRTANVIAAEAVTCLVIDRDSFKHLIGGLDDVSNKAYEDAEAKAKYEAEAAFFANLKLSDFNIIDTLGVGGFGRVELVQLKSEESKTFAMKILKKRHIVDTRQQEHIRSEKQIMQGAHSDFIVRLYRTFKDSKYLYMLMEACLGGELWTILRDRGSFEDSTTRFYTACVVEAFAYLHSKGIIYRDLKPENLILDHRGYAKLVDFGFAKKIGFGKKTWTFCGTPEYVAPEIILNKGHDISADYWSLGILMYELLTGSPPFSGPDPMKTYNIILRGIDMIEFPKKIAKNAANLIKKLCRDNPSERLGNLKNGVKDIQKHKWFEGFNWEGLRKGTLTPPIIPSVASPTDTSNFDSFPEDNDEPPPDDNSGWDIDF

c-RAF(h) = c-RAF(h) (Homo sapiens (Human), UniProt P04049, Y340D/Y341D)
EGFR(T790M)(h) = EGFR(T790M)(h) (Homo sapiens (Human), UniProt P00533, T790M)
PKBα(h) = PKBα(h) (Homo sapiens (Human), UniProt P31749)
Met(D1246H)(h) = Met(D1246H)(h) (Homo sapiens (Human), UniProt P08581, D1246H)
EphB4(h) = EphB4(h) (Homo sapiens (Human), UniProt P54760)
Chain of EphB4(h) (P54760 16-987): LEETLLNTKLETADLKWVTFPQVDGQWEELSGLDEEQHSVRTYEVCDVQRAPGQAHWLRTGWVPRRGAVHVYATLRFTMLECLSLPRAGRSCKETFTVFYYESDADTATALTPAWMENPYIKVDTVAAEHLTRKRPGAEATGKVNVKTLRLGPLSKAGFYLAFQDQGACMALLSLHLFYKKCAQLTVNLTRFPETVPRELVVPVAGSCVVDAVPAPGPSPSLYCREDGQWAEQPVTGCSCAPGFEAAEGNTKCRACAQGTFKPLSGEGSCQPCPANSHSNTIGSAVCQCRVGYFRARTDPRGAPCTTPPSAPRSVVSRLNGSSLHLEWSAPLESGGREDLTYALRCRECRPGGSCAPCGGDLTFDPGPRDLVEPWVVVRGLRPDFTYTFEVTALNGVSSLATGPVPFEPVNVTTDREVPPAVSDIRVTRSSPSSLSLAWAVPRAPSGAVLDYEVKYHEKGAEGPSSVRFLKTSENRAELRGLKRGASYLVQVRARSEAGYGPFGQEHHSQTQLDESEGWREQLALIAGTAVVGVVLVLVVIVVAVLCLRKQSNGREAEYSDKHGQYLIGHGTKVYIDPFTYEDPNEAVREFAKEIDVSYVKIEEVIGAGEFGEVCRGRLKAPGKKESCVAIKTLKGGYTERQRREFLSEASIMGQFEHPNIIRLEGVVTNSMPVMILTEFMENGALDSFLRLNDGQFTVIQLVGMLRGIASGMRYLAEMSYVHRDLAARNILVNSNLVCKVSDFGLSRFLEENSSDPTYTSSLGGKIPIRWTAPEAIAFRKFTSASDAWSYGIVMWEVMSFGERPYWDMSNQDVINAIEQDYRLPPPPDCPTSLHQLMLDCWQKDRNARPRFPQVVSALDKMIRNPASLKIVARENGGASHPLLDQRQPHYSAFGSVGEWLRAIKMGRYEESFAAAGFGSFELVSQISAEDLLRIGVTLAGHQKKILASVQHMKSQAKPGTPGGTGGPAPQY

ZAP-70(h) = ZAP-70(h) (Homo sapiens (Human), UniProt P43403)
Chain of ZAP-70(h) (P43403 whole entry): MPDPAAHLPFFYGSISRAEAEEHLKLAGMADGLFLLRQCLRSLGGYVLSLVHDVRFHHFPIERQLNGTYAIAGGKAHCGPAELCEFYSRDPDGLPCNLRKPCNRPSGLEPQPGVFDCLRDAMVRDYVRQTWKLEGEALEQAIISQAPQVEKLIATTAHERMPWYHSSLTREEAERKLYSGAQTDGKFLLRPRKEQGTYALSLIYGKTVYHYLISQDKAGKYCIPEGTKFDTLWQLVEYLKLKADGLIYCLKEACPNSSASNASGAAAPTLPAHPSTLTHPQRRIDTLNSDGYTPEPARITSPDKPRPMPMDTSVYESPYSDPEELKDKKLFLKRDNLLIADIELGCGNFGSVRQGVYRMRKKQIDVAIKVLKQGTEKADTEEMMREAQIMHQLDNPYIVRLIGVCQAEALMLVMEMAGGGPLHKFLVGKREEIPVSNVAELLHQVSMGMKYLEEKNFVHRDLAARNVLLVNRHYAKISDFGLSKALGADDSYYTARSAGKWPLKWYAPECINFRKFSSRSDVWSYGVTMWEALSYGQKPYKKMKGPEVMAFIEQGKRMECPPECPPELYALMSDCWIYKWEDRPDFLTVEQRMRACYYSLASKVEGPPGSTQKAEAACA

JAK3(h) = JAK3(h) (Homo sapiens (Human), UniProt P52333)
CaMKIIβ(h) = CaMKIIβ(h) (Homo sapiens (Human), UniProt Q13554)
FGFR1(h) = FGFR1(h) (Homo sapiens (Human), UniProt P11362)
ROCK-II(r) = ROCK-II(r) (Rattus norvegicus (Rat), UniProt Q62868)
TAO1(h) = TAO1(h) (Homo sapiens (Human), UniProt Q7L7X3)
BTK(R28H)(h) = BTK(R28H)(h) (Homo sapiens (Human), UniProt Q06187, R28H)
TSSK2(h) = TSSK2(h) (Homo sapiens (Human), UniProt Q96PF2)
PKBβ(h) = PKBβ(h) (Homo sapiens (Human), UniProt P31751)
TRKB(h) = TRKB(h) (Homo sapiens (Human), UniProt Q16620)
PKCε(h) = PKCε(h) (Homo sapiens (Human), UniProt Q02156)
Aurora-A(h) = Aurora-A(h) (Homo sapiens (Human), UniProt O14965)
Abl(m) = Abl(m) (Mus musculus (Mouse), UniProt P00520)
Chain of Abl(m) (P00520 whole entry): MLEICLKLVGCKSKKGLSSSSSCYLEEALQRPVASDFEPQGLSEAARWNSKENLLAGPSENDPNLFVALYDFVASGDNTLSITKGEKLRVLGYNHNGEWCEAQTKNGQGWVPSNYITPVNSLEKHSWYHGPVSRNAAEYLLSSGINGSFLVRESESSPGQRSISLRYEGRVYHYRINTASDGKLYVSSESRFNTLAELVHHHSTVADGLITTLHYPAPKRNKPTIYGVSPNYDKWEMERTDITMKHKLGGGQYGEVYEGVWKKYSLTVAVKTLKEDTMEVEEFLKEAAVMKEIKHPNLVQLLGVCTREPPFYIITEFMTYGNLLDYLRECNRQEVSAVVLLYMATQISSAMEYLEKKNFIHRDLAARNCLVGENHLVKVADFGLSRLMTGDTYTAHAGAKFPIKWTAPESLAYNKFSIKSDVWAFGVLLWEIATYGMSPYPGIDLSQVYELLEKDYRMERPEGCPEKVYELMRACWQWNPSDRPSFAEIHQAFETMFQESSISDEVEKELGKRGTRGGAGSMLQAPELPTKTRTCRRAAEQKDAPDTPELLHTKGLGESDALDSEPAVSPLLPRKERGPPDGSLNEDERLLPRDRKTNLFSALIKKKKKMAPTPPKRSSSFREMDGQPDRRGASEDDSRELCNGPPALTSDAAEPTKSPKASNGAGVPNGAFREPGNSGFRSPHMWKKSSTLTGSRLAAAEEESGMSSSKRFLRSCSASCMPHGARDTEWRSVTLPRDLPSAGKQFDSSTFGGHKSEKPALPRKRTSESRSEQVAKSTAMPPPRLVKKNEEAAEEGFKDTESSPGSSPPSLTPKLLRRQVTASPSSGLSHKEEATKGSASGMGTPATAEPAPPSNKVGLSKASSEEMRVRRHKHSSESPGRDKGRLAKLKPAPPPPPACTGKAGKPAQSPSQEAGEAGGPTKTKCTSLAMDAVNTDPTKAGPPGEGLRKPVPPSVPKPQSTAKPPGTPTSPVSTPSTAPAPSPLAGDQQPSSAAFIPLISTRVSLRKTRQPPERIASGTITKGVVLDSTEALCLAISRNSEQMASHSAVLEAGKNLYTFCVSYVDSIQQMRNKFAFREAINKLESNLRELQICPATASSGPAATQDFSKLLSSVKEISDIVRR

TRKA(h) = TRKA(h) (Homo sapiens (Human), UniProt P04629)
DCAMKL2(h) = DCAMKL2(h) (Homo sapiens (Human), UniProt Q8N568)
MSSK1(h) = MSSK1(h) (Homo sapiens (Human), UniProt Q9UPE1)
PAK4(h) = PAK4(h) (Homo sapiens (Human), UniProt O96013)
mTOR(h) = mTOR(h) (Homo sapiens (Human), UniProt P42345)
Met(h) = Met(h) (Homo sapiens (Human), UniProt P08581)
IR(h), activated = IR(h), activated (Homo sapiens (Human), UniProt P06213)
Fyn(h) = Fyn(h) (Homo sapiens (Human), UniProt P06241)
TSSK1(h) = TSSK1(h) (Homo sapiens (Human), UniProt Q9BXA7)
Chain of TSSK1(h) (Q9BXA7 whole entry): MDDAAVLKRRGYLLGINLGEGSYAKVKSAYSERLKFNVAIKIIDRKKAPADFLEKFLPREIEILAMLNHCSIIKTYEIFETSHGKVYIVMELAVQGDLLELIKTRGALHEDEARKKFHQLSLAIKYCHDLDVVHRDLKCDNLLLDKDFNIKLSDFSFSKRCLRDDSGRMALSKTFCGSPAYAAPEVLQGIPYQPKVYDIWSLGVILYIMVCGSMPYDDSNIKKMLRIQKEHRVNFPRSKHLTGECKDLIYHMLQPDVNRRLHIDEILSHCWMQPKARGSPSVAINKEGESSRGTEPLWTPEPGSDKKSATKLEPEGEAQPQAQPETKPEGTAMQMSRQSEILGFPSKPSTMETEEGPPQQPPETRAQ

Src(T341M)(h) = Src(T341M)(h) (Homo sapiens (Human), UniProt P12931, T341M)
Chain of Src(T341M)(h) (P12931 whole entry T341M, looked up): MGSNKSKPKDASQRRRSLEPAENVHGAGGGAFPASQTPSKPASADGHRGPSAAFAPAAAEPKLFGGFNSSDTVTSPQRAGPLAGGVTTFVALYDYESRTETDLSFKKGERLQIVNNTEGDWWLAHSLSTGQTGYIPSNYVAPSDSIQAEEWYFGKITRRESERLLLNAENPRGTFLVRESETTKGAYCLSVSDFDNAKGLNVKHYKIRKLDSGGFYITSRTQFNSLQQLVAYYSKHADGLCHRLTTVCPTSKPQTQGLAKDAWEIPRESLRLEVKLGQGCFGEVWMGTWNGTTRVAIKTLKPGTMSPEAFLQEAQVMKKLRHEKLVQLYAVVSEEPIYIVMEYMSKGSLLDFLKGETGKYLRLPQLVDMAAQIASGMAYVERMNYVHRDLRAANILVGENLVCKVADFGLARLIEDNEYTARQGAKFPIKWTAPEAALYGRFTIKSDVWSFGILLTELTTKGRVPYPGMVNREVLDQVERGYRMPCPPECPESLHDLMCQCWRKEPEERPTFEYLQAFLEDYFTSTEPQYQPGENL

SAPK2a(T106M)(h) = SAPK2a(T106M)(h) (Homo sapiens (Human), UniProt Q16539, T106M)
CK1γ1(h) = CK1γ1(h) (Homo sapiens (Human), UniProt Q9HCP0)
HIPK2(h) = HIPK2(h) (Homo sapiens (Human), UniProt Q9H2X6)
WNK3(h) = WNK3(h) (Homo sapiens (Human), UniProt Q9BYP7)

SMILES: CCn1c(N2CCNCC2)nc2c(Br)c(Br)c(Br)c(Br)c21 [Compound 416, 4,5,6,7-tetrabromo-1-ethyl-2-(piperazin-1-yl)-1H-benzo[d]imidazole]
- remaining activity at 1 µM (PKCγ(h)): 93%
- remaining activity at 1 µM (PKCβII(h)): 98%
- remaining activity at 1 µM (Abl (Q252H) (h)): 98%
- remaining activity at 1 µM (cKit(D816V)(h)): 61%
- remaining activity at 1 µM (Txk(h)): 99%
- remaining activity at 1 µM (IRAK1(h)): 33%
- remaining activity at 1 µM (PKG1β(h)): 5%
- remaining activity at 1 µM (c-RAF(h)): 85%
- remaining activity at 1 µM (EGFR(T790M)(h)): 28%
- remaining activity at 1 µM (PKBα(h)): 59%
- remaining activity at 1 µM (Met(D1246H)(h)): 72%
- remaining activity at 1 µM (EphB4(h)): 100%
- remaining activity at 1 µM (ZAP-70(h)): 108%
- remaining activity at 1 µM (JAK3(h)): 74%
- remaining activity at 1 µM (CaMKIIβ(h)): 67%
- remaining activity at 1 µM (FGFR1(h)): 99%
- remaining activity at 1 µM (ROCK-II(r)): 71%
- remaining activity at 1 µM (TAO1(h)): 6%
- remaining activity at 1 µM (BTK(R28H)(h)): 102%
- remaining activity at 1 µM (TSSK2(h)): 95%
- remaining activity at 1 µM (PKBβ(h)): 90%
- remaining activity at 1 µM (TRKB(h)): 37%
- remaining activity at 1 µM (PKCε(h)): 104%
- remaining activity at 1 µM (Aurora-A(h)): 125%
- remaining activity at 1 µM (Abl(m)): 90%
- remaining activity at 1 µM (TRKA(h)): 35%
- remaining activity at 1 µM (DCAMKL2(h)): 101%
- remaining activity at 1 µM (MSSK1(h)): 87%
- remaining activity at 1 µM (PAK4(h)): 79%
- remaining activity at 1 µM (mTOR(h)): 95%
- remaining activity at 1 µM (Met(h)): 81%
- remaining activity at 1 µM (IR(h), activated): 93%
- remaining activity at 1 µM (Fyn(h)): 73%
- remaining activity at 1 µM (TSSK1(h)): 96%
- remaining activity at 1 µM (Src(T341M)(h)): 40%
- remaining activity at 1 µM (SAPK2a(T106M)(h)): 86%
- remaining activity at 1 µM (CK1γ1(h)): 83%
- remaining activity at 1 µM (HIPK2(h)): 1%
- remaining activity at 1 µM (WNK3(h)): 94%
